{"source": "patent US9796674B2", "about": "“Benzyl urea derivatives for activating TGF-beta signaling” (THE BOARD OF TRUSTEES OF THE LELAND STANFORD JUNIOR …, priority 2013, dated 2017)", "key": {"[1]": {"system": "TGF-β signaling", "experiment": "Bioluminescence in SBE-luc reporter mice", "assay_type": "in vivo, mouse", "settings": "brain/CNS bioluminescence", "method": "The most promising compounds out of these screens were tested for their neuroprotective potential in B103 rat neuroblastoma cells and primary mouse neurons derived from E16 forebrains. Compounds were also tested for their capacity to reduce varicosities and tortuosity in primary mouse neurons. Accordingly, novel neuroprotectant small molecules have been identified that are as potent or better than TGF-β. Importantly, they fulfilled the critical neuroprotective properties in neuronal cell lines and primary hippocampal mouse neurons. • Compounds based on the 11H core: The present compositions and methods include salts of the active compounds and formulations, in particular pharmaceutically acceptable compositions for administration to an animal or human subject and containing active compounds. 129 analogs or derivatives of 11H were screened by a cell-based assay for their ability to increase TGF-β activity, i.e. to act as a TGF agonist. In particular, one compound (a) designated as SRI-011381 (381) was identified as especially advantageous, although active derivatives thereof are contemplated and have been identified. • Effects of TGF-β analogs in vitro: Some of the small-molecule TGF-β agonist compounds were tested for neuroprotection activity and toxicity in vitro (cell culture). In addition, the mechanism of action of the agonists was explored using cells with different genetic backgrounds with respect to protein of the […] signaling pathway. • Animal studies: Transgenic mice harboring the SBE-luc reporter gene were generated and used to test the derivatives of compound 11H in vivo. These “reporter mice” mice express SBE-luc (i.e., “the transgene”) in all cells of the body. Intraperitoneal injection of luciferin into SBE-luc-expressing mice produces bioluminescence generated by luciferase and photons penetrating the skull can be imaged using sensitive camera systems.\nSBE-luciferase transgenic mice: Two-month old SBE-luciferase transgenic mice receive different concentrations of a test compound either s.q., ip., or orally by gavage. […] Following administration of the test or control compounds, mice are injected with luciferin ip. At, for example, 2, 8, and 16 hours following injection of luciferin, the mice are imaged to detect bioluminescence as described above. Brains may be harvested 16 hours following test compound injection, and may be divided sagittally. For example, one hemi-brain can be homogenized in luciferase assay buffer for measurement of reporter gene activation, while the other hemi-brain can be frozen at −70° C. for future study, including sectioning into individual brain regions"}, "[2]": {"system": "hippocampal neurons", "experiment": "Aβ-induced neuritic dystrophy in primary hippocampal neurons", "assay_type": "cell-based, mouse", "settings": "for average numbers of dystrophic neurites per neuron: 21-22 DIV, 5 μM Aβ, 48 h", "method": "Primary hippocampal neurons isolated from E16 CF1 embryos were aged for 6-7 days or 21-22 days, then challenged with 5 μM oligomeric Aβ in the presence or absence of compounds, and assayed for neurotoxicity (cell survival as above) or neuritic dystrophy, respectively. For quantification of neuritic dystrophy, fixed cells were immune-stained with a MAP-2 monoclonal antibody to label dendrites.\nPrimary hippocampal neurons were isolated from E16 CF1 embryos. Twenty-four-well culture plates were coated with 10 μg/ml poly-L-lysine. Cells were seeded overnight at a density of 30,000 cells/well in DMEM/F-12 medium supplemented with 10% FBS and penicillin/streptomycin, and subsequently maintained in Neurobasal medium containing 2% B27 supplement. Cells were aged for 6-7 days or 21-22 days, then challenged with 5 μM Aβ in the presence or absence of compounds, and assayed for neurotoxicity or neuritic dystrophy, respectively. Cells were treated for 72 h for neurotoxicity assay and 48 h for neuritic dystrophy assay. At the end of treatment, an equal volume of 4% PFA was added, plates incubated at room temperature for 15 min and then washed three times with DPBS. Cells were kept in the last wash of DPBS at 4° C. until being counted or stained.\nFor quantification of neuritic dystrophy, fixed cells were immunostained with a MAP-2 monoclonal antibody (Sigma-Aldrich). […] MAP2 positive dendrites were observed under an inverted fluorescence microscope (Olympus). […] To quantify neurite curvature, an established method was modified for assessment of neurite curvature. Neurite tracks were digitized and approximated by a series of connected line segments using ImageJ (NIH). The angle of each segment was determined using a Sigmaplot macro, and the results were averaged to give the ‘mean differential curvature’. This parameter reflects the degree of neurite curvature with an increasing value indicating increased curvature. Neurite counting and quantification were performed in randomly selected fields (5 fields/well). All quantitative assessments were done by investigators blinded with respect to treatment conditions."}, "[3]": {"system": "B103 neuroblastoma cells", "experiment": "B103 live/dead cell assay with Aβ", "assay_type": "cell-based, rat", "settings": "Aβ 24 h; added 2 h before Aβ", "method": "SRI-11381 is neuroprotective in vitro: To determine if the TGF-β-inducing capacity of SRI-011381 would translate into biologically beneficial effects, its neuroprotective potential was tested in B103 rat neuroblastoma cells and primary mouse neurons derived from E16 forebrains. B103 neuroblastoma cells were cultured in 24-well plates and exposed to an oligomeric preparation of Aβ together with compounds or recombinant TGF-β.\nFIGS. 3A-3H illustrate that SRI-011381 protects cultured neurons from Aβ toxicity. B103 neuroblastoma cells were incubated with Aβ for 24 h. The compounds and TGF-β were added 2 h before Aβ. Following incubations live and dead cells were assessed with calcein-acetoxymethylester (CAM) and SYTOX Orange (Invitrogen), respectively.\nB103 neuroblastoma cells: B103 neuroblastoma cells were cultured in Dulbecco's modified Eagle's medium containing 10% fetal calf serum and 1% v/v penicillin/streptomycin (Invitrogen) in a 5% CO2: 95% air atmosphere. 10^4 cells/well were seeded onto 24 well plates and cultured for 24 h before Aβ was added. The compounds and TGF-β were added 2 h before Aβ. Following a 24 h incubation with Aβ, live and dead cells were assessed using calcein-acetoxymethylester (CAM) and SYTOX Orange (Invitrogen), respectively. AM is a membrane-permeable, fluorogenic esterase substrate that is hydrolyzed intracellularly to a green fluorescent product (calcein) in live cells. SYTOX Orange is a high-affinity nucleic acid stain that easily penetrates cells with compromised plasma membranes and yet will not cross the membranes of live cells. After incubation with SYTOX Orange, the nucleic acids of dead cells fluoresce bright orange. […] Five fields were randomly selected from each well and the cell numbers were analyzed by ImageJ (NIH) in a blinded fashion."}}, "data": [{"compound": "C/C(=C\\c1ccccc1)CN(CC1CCNCC1)C(=O)NC1=CCC=CC1", "note": "[Compound 11H, reference compound]", "values": [{"measurement": "activation of TGF-β signaling in SBE-luc reporter mice", "setting": "[1]", "value": "penetrate into the CNS and activate TGF-β signaling"}, {"measurement": "average numbers of dystrophic neurites per neuron", "setting": "[2]", "value": "markedly reduced"}]}, {"compound": "TGF-β1: Transforming Growth Factor-β, recombinant cytokine used as comparator", "values": [{"measurement": "Aβ-induced cell death", "setting": "[3]", "value": "inhibit Aβ-induced cell death"}, {"measurement": "Aβ-induced increase in neurite curvature (mean differential curvature)", "setting": "[2]", "value": "prevented"}, {"measurement": "average numbers of dystrophic neurites per neuron", "setting": "[2]", "value": "markedly reduced"}]}]}
